Experimental findings from ChEMBL document CHEMBL1201862, “PubChem BioAssay data set” (2004) are described below.

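Five compound concentrations were applied to cells in 96-well plates for 48 hours; endpoints were derived by simple linear interpolation of the resulting dose-response curve. GI50 is the concentration that inhibits growth by half.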 Active and inactive are the calls of the source. Cut-off read from the data, not from the text of the source: active = GI50 up to about 1.1 µM and inactive = higher.

Among the test systems are RPMI-8226; MDA-N; SK-MEL-28; NCI-H226; HCT-116; MCF7; SF-539; NCI-H522; 786-0; HCT-15; HL-60; DU-145; SR; NCI/ADR-RES; UACC-257; CAKI-1; SNB-75; HCC 2998; PC-3; OVCAR-5.
Holding throughout (assay): growth of human tumour cells (NCI), 48 h

As for `Cc1cc2c3c(c1)CCCN3CCC2`, the GI50 with RPMI-8226, in the test with MDA-N, with SK-MEL-28, in the test on NCI-H226, in the test on HCT-116 and in the test on MCF7 was > 10 µM (inactive) in each case. Further, the GI50 is > 10 µM (inactive) with SF-539; > 10 µM (inactive) in the test on NCI-H522; > 10 µM (inactive) in the test on 786-0; over 10 µM in the test with HCT-15; > 10 µM (inactive) in the test on HL-60; > 10 µM (inactive) in the test on DU-145. In addition, the GI50 in the test on SR, in the test on NCI/ADR-RES, in the test with UACC-257, in the test on CAKI-1, with SNB-75 and in the test on HCC 2998 was > 10 µM (inactive) in each case. Moreover, in the test with PC-3, the GI50 was > 10 µM (inactive).
For `O=C(CN1CCN(Cc2ccccc2)CC1)c1ccc2[nH]c(=O)oc2c1`, the GI50 was > 100 µM (inactive) in the test with RPMI-8226; > 100 µM (inactive) in the test with OVCAR-5; > 100 µM (inactive) with MDA-N; > 100 µM (inactive) in the test on SK-MEL-28; > 50.6 µM (inactive) in the test with NCI-H226; > 100 µM (inactive) in the test on HCT-116. Also, the GI50 with MCF7 was > 100 µM (inactive); in the test with SF-539, > 100 µM (inactive); in the test on NCI-H522, 74.5 µM (inactive); with 786-0 it was > 100 µM (inactive); with HCT-15 it was over 100 µM; in the test with HL-60, > 90.4 µM (inactive). The GI50 with DU-145 is > 100 µM (inactive); with SR, > 67.1 µM (inactive); in the test on NCI/ADR-RES, > 100 µM (inactive); in the test with UACC-257, > 100 µM (inactive); in the test with CAKI-1 it was > 100 µM (inactive); in the test on SNB-75, > 41.3 µM (inactive). Further, the GI50 in the test on HCC 2998 and in the test on PC-3 was > 100 µM (inactive) throughout.
Turning to `O=C(/C=C1\Nc2ncccc2N=C1CC(=O)c1ccccc1)c1ccccc1`, the GI50 in the test on RPMI-8226 was 5.37 µM (inactive); in the test on OVCAR-5, 23.5 µM (inactive); with MDA-N it was 7.52 µM (inactive); in the test on SK-MEL-28, 32.3 µM (inactive); in the test on MCF7 it was 3.61 µM (inactive); with SF-539, 13.2 µM (inactive). Moreover, the GI50 was 11 µM (inactive) in the test with NCI-H522; 2 µM with HCT-15; 13.5 µM (inactive) with HL-60; 12.9 µM (inactive) with DU-145; 4.66 µM (inactive) with SR; 4.56 µM (inactive) with NCI/ADR-RES. The GI50 is 65.6 µM (inactive) in the test on UACC-257, 2.06 µM (inactive) with CAKI-1, 20.4 µM (inactive) in the test with SNB-75 and 10.1 µM (inactive) with PC-3.
With `O=[N+]([O-])c1ccc(S[C@@H]2[C@H]3c4c(-c5ccccc5)[nH]c(-c5ccccc5)c4[C@@H]2C[C@H]3Cl)cc1`, the GI50 was 9.95 µM (inactive) with OVCAR-5; 2.89 µM (inactive) in the test on MDA-N; 18.1 µM (inactive) in the test with SK-MEL-28; 6.71 µM (inactive) in the test with NCI-H226; 1.76 µM (inactive) in the test on HCT-116; 2.31 µM (inactive) in the test on MCF7. Besides, the GI50 with SF-539 was 6.75 µM (inactive); with NCI-H522, 2.9 µM (inactive); in the test on 786-0, 2.62 µM (inactive); in the test on HCT-15 it was 2.39 µM; in the test on HL-60 it was 3.17 µM (inactive); in the test on DU-145 it was 3.31 µM (inactive). For the same molecule, the GI50 is 1.14 µM (inactive) in the test with SR; 2.87 µM (inactive) with NCI/ADR-RES; 14.8 µM (inactive) with UACC-257; 3.38 µM (inactive) in the test on CAKI-1; 2.15 µM (inactive) in the test on SNB-75; 3.8 µM (inactive) with PC-3.
As for `O=[N+]([O-])c1ccc(S(=O)(=O)N=Ic2ccccc2)cc1`, the GI50 with RPMI-8226, in the test on OVCAR-5, with MDA-N, with SK-MEL-28, in the test on NCI-H226 and in the test on HCT-116 was > 100 µM (inactive) throughout. For the same molecule, the GI50 was > 100 µM (inactive) in the test on MCF7; > 100 µM (inactive) with SF-539; > 100 µM (inactive) in the test with NCI-H522; > 100 µM (inactive) in the test on 786-0; over 100 µM in the test on HCT-15; > 100 µM (inactive) with HL-60. For the same molecule, the GI50 in the test on DU-145, in the test with SR, in the test with NCI/ADR-RES, in the test with UACC-257, in the test with CAKI-1 and in the test on SNB-75 was > 100 µM (inactive) throughout. Moreover, the GI50 with HCC 2998 and in the test on PC-3 was > 100 µM (inactive) throughout.
`O=S1(=O)C[C@H](NCc2ccccc2)[C@H](NCc2ccccc2)C1`: the GI50 in the test with RPMI-8226 is 22.8 µM (inactive); with OVCAR-5 it was > 100 µM (inactive); in the test with MDA-N, > 100 µM (inactive); with SK-MEL-28, > 100 µM (inactive); with NCI-H226 it was > 100 µM (inactive); in the test on HCT-116 it was > 100 µM (inactive). Besides, the GI50 is 83.8 µM (inactive) in the test on MCF7; > 100 µM (inactive) in the test with SF-539; 17.6 µM (inactive) in the test with NCI-H522; > 100 µM (inactive) with DU-145; 18.4 µM (inactive) with SR; 61.5 µM (inactive) in the test with NCI/ADR-RES. Besides, the GI50 with UACC-257 was > 100 µM (inactive); in the test on CAKI-1, > 100 µM (inactive); in the test with SNB-75 it was > 100 µM (inactive); with HCC 2998, > 100 µM (inactive); with PC-3 it was 56.5 µM (inactive).
On to `COc1ccc(N2C(=O)C3c4[nH]c5ccc(F)cc5c4C4CCC(C(C)(C)C)CC4C3C2=O)cc1` (stereo unspecified), for which the GI50 in the test on RPMI-8226 is > 10 µM (inactive); in the test with OVCAR-5, > 10 µM (inactive); in the test on MDA-N it was > 10 µM (inactive); in the test with SK-MEL-28 it was > 10 µM (inactive); with NCI-H226 it was > 10 µM (inactive); in the test on HCT-116 it was 4.14 µM (inactive). Besides, the GI50 is > 10 µM (inactive) in the test with MCF7; 6.35 µM (inactive) with SF-539; 6.87 µM (inactive) with NCI-H522; over 10 µM in the test with HCT-15; > 10 µM (inactive) in the test with HL-60; > 10 µM (inactive) with DU-145. In addition, the GI50 in the test with SR is > 10 µM (inactive); with NCI/ADR-RES it was 9.08 µM (inactive); with CAKI-1 it was > 10 µM (inactive); in the test with SNB-75 it was 1.84 µM (inactive); with HCC 2998, > 10 µM (inactive); in the test on PC-3, 7.33 µM (inactive).
As for `CC(C)(C)N(Cc1ccoc1)C(=O)/C=C\[S+]([O-])c1ccccc1` (stereo unspecified), the GI50 with RPMI-8226 was 14.4 µM (inactive); in the test with OVCAR-5, 25.2 µM (inactive); with MDA-N it was 11.5 µM (inactive); in the test with SK-MEL-28 it was 21.8 µM (inactive); with NCI-H226, 25.9 µM (inactive); in the test on HCT-116 it was 16.6 µM (inactive). Further, the GI50 with MCF7 is 15.6 µM (inactive); in the test with SF-539, 21 µM (inactive); in the test on NCI-H522, 17.5 µM (inactive); in the test with 786-0, 19.8 µM (inactive); in the test with HCT-15, 19.2 µM; in the test with HL-60, 12.7 µM (inactive). Moreover, the GI50 in the test on DU-145 is 12.5 µM (inactive); with SR it was 6.44 µM (inactive); in the test on NCI/ADR-RES, 21.2 µM (inactive); in the test with UACC-257 it was 19.9 µM (inactive); with CAKI-1, 14.5 µM (inactive); in the test on HCC 2998, 18.5 µM (inactive). In the test with PC-3, the GI50 was 10.6 µM (inactive).
On to `CN(/N=C/c1ccc(Cl)cc1)C1=NCCCCN1`, for which the GI50 was > 100 µM (inactive) with RPMI-8226; > 100 µM (inactive) in the test with OVCAR-5; > 100 µM (inactive) in the test with MDA-N; > 100 µM (inactive) in the test on NCI-H226; 48.1 µM (inactive) in the test with HCT-116; > 100 µM (inactive) in the test on MCF7. Also, the GI50 in the test with SF-539 is > 100 µM (inactive); in the test with NCI-H522, 39.4 µM (inactive); in the test on 786-0, 99.8 µM (inactive); in the test with HCT-15, over 100 µM; in the test with HL-60, 30.3 µM (inactive); in the test with DU-145, > 100 µM (inactive). Further, the GI50 was > 100 µM (inactive) in the test with SR; > 100 µM (inactive) in the test on NCI/ADR-RES; > 100 µM (inactive) with UACC-257; > 100 µM (inactive) in the test with CAKI-1; 68.7 µM (inactive) in the test on SNB-75; 44.6 µM (inactive) with HCC 2998. The GI50 with PC-3 was 32.9 µM (inactive).
In the case of `COc1c(OC)c(OC)c2c(c1OC)c(=O)c1ccccc1n2C` [MELICOPICINE], the GI50 with RPMI-8226, with OVCAR-5, with MDA-N, in the test on SK-MEL-28, in the test with NCI-H226 and in the test on HCT-116 was > 100 µM (inactive) in each case. In addition, the GI50 was > 100 µM (inactive) in the test on MCF7; > 100 µM (inactive) with SF-539; > 100 µM (inactive) with NCI-H522; > 100 µM (inactive) in the test with 786-0; 72.3 µM in the test with HCT-15; 57.4 µM (inactive) with HL-60. Also, the GI50 in the test with DU-145 is > 100 µM (inactive); in the test with SR, 6.65 µM (inactive); in the test on NCI/ADR-RES, 73.5 µM (inactive); in the test on UACC-257 it was > 100 µM (inactive); in the test with CAKI-1 it was > 100 µM (inactive); in the test on SNB-75, > 100 µM (inactive). Besides, the GI50 in the test with HCC 2998 and in the test with PC-3 was > 100 µM (inactive) each time.
